Assay results published in ChEMBL document CHEMBL3507680, “University of Dundee, Gates Library screen for HepG2 cell viability”.

Experiment: Human HepG2 cell viability assay in 384 well format
Type: toxicity, cell-based
Set-up: dose 125 nL, time 70.5 hour; cytotoxicity at 70.5 h: concentration not given beside the values
Details: HepG2 cells, read-out: Inhibition

Compound	cytotoxicity at 70.5 h [%]
Cn1nc(C(=O)N2CCOCC2)c2c1CN(CC1CCC1)C2	-5.26
COCC(=O)NCc1cc(=O)n2c(n1)CN(Cc1nccs1)CCC2	-5.03
O=C(Cc1ccsc1)N1C[C@@H]2COC[C@]2(COc2cccnc2)C1	-6.1
O=C(c1ccnnc1)N1CCC2(CC1)CCN(C(=O)c1cccnc1)C2	-0.196
CNC(=O)N1CC[C@@H]2CN(Cc3cccc(OC)c3)S(=O)(=O)[C@@H]2CC1	-11.1
COCCC(=O)N1CCC2(COCc3cnc(-c4cccnc4)nc32)C1 (stereo not given)	-6.92
Cn1nc(COc2cccnc2)c2c1CCN(c1ncccn1)C2	-14.2
CS(=O)(=O)N1C[C@@H](NC(=O)c2ccno2)[C@@H]2OCCC[C@@H]21	-12.2
Cc1cnc(N2CCc3onc(COc4cccnc4)c3C2)nc1	-3.25
CC(C)C(=O)N1CCC2(COCc3cnc(-c4cccnc4)nc32)C1 (stereo not given)	-7.75
CN(C)S(=O)(=O)N1CCC2(COCc3cnc(-c4cccnc4)nc32)C1 (stereo not given)	-9.11
CS(=O)(=O)NC[C@]12COC[C@H]1CN(C(=O)C1CCSCC1)C2	-5.88
Cc1noc([C@H]2C[C@@H]3CCN(C(=O)c4cccn4C)C[C@H]3O2)n1	-3.46
CCC(Nc1nc(C)nc2onc(C)c12)c1cccs1 (stereo not given)	-2.98
COCc1noc(CCNC(=O)c2cc(C)c(C)[nH]c2=O)n1	-7.79
CCCSCC(=O)N1CCCC(CO)(CCC)C1 (stereo not given)	-22.8
O=C1CCCN1C1CCN(S(=O)(=O)CCOc2ccc(F)cc2)CC1	23.9
CC(C)=CCN1C[C@H]2CC[C@@H]1CN(C(=O)CCc1n[nH]c(C)n1)C2	-1.3
c1cnc(N2CCOCC3(C2)CN(c2nccs2)CCO3)nc1 (stereo not given)	-7.1
CS(=O)(=O)CC(=O)N1C[C@H]2CCC[C@@]2(COc2ccccn2)C1	12.7
CS(=O)(=O)CC(=O)N1C[C@H]2CCC[C@@]2(COCc2ccncc2)C1	-3.98
NC(=O)CC1CC2(CCNCC2)c2cc(F)ccc21 (stereo not given)	-7.94
COCC1CC2(CCN(c3cc(OC)ncn3)CC2)CN1C(C)C (stereo not given)	-8.64
COCC1CC2(CCN(c3ccc(C)nn3)CC2)CN1C(C)C (stereo not given)	-10.4
CCO[C@H]1CN(CC2CC2)[C@@H]2CCCO[C@H]12	1.44
COc1cccc(CN2C[C@@H]3COC[C@]3(CNC(=O)C3CC3)C2)c1	-9.15
COCC1CC2(CCN(c3cccc(C)n3)CC2)CN1c1ncccn1 (stereo not given)	-10.3
O=C(c1cccnc1)N1CCC2(CCN(C(=O)c3ccco3)CC2)C1	2.92

Compound	cytotoxicity at 70.5 h [%]
CCC1=N[C@@]2(CC[C@@H]3CN(Cc4ccc(F)cc4)C[C@@H]32)C(=O)N1C	0.293
O=C(c1cccnc1)N1CCC2(CCN(C(=O)N3CCCC3)CC2)C1	-0.226
CC(C)N1CCc2c(C(=O)N3CCOCC3)nn(C)c2C1	0.371
COCC(=O)NC1CC2(CCN(CCO)CC2)c2ccccc21 (stereo not given)	8.06
O=C(NCCc1cccs1)[C@H]1CO[C@H]2CCN(C3CCC3)C[C@H]2C1	-0.468
CCC1=N[C@@]2(CC[C@@H]3CN(Cc4ccccc4C)C[C@@H]32)C(=O)N1C	0.166
CCC1=N[C@@]2(CC[C@@H]3CN(Cc4cccc(Cl)c4)C[C@@H]32)C(=O)N1C	16.7
O=C(COC1CCCC1)N1C[C@@H]2COC[C@]2(COc2cccnc2)C1	3.14
O=C(NCCc1cccs1)[C@H]1CO[C@H]2CCN(CC3CC3)C[C@H]2C1	-5.6
Cn1cccc1C(=O)N1CCC2(CCN(C(=O)c3cccnc3)C2)CC1	3.23
CC(C)CNC(=O)N1CC[C@@H]2CN(Cc3cccnc3)S(=O)(=O)[C@@H]2CC1	-4.92
O=C(CC1CC1)N1CCC2(CC1)CN(c1cccnc1)C(=O)CO2	-4.69
CCS(=O)(=O)N1CCC2(CC1)CN(c1cccnc1)C(=O)CO2	-5.49
CS(=O)(=O)NC[C@]12COC[C@H]1CN(CC1CCC1)C2	-12.2
CN(Cc1cncnc1)[C@@H]1CN(C(=O)C2CC2)[C@@H]2CCCO[C@H]12	-3.07
CN(Cc1cncnc1)[C@@H]1CN(C(=O)c2ccco2)[C@@H]2CCCO[C@H]12	-3.82
CC1CCN(C(=O)[C@@H]2C[C@@H]3CCN(Cc4nccs4)C[C@H]3O2)CC1	-6.62
CN(C)C(=O)[C@H]1C[C@@H]2CCN(Cc3ccoc3)C[C@@H]2O1	-13.4
Cn1cc(CNC2CCc3c(ccc(=O)n3Cc3ccncc3)C2)cn1 (stereo not given)	-15.3
CCCN1CCC2(CC1)CN(C(=O)c1cccnc1)c1ccc(F)cc12	-8.65
CCN1CCC2(CC1)CN(C(=O)c1cccnc1)c1ccc(Cl)cc12	-10.5
O=C(NC[C@]12COC[C@H]1CN(Cc1cccnc1)C2)C1CCC1	-4.65
Cc1ccc(CN2CC3(CCN(C(=O)c4cccnc4)C3)C2)o1	3.03
Cn1nc(COc2cccnc2)c2c1CCN(CC1CC1)C2	-8.94
COc1ccc(CN2CCO[C@H]3[C@H](OCc4ccncc4)CC[C@@H]32)cc1	58.1
Cc1ccc(CN2CCn3cc(CN4CCN(C)CC4)nc3C2)cc1	-13.5
FC1(F)CCN(Cc2ccncc2)CC12CCN(c1cccnc1)C2 (stereo not given)	2.6
